Experimental data reported in patent US10413535B2, “Pharmaceutical compositions comprising an integrin ALPHA4 antagonist for use in treating ocular inflammatory conditions” (AXEROVISION, INC., priority 2015, dated 2019).
Like-named read-outs stand apart in the source and are kept apart here.

Assay: Toxicokinetics in 13-week topical ocular dog study
Conditions: in vivo, topical or ocular
Protocol: GW559090A was given to Beagle Dogs by topical ocular administration for 13 weeks. Animals were dosed six or twelve times per day, with one hour between doses. Treatment groups were: (1) vehicle (12 times a day), (2) 30 mg/mL/occasion given six times a day, (3) 50 mg/mL/occasion given six times a day, or (4) 50 mg/mL/occasion, given 12 times a day.
GW559090A was formulated as a stock solution in 25 mM phosphate buffer with 0.5% sodium chloride to provide a 50 mg/mL stock solution, which was used for administration to Groups 3 or 4, or further diluted with 25 mM phosphate buffer with 0.75% sodium chloride to provide a 30 mg/mL solution for administration to Group 2.
During the 13 week treatment period dogs received daily topical ocular doses of GW559090 or vehicle (12 times a day) at a constant dose volume of 0.06 mL (given 6 or 12 times a day, with one hour between doses). The test article formulation or vehicle was carefully dropped into the everted lower eyelid of the left eye from a suitable distance, to prevent contact of the positive displacement pipette with the eye. The lower and upper lids were then gently held together for approximately five seconds, to prevent loss of dose and aid even distribution across the external ocular surface. The un-dosed eye was not manipulated at any time and served as a within animal untreated control site.

Cc1ccccc1OCC(=O)N[C@@H](CC(C)C)C(=O)N[C@@H](Cc1ccc(OC(=O)N2CCC(C(N)=O)CC2)cc1)C(=O)O [GW559090, (2S)-3-[4-({[4-(Aminocarbonyl)-1-piperidinyl]carbonyl}oxy)phenyl]-2-[((2S)-4-methyl-2-{[2-(2-methylphenoxy)acetyl]amino}pentanoyl)amino]propanoic acid]
AUC(0-t) (both sexes, Beagle, 50 mg/mL/occasion, dogs, males and females combined, 50 mg/mL/occasion 12 times a day, Week 13, read-out: AUC0-1 exposure at NOAEL): 11.2 ng·h/mL | Estimated AUC0-24 (both sexes, Beagle, 50 mg/mL/occasion, dogs, males and females combined, 50 mg/mL/occasion 12 times a day, Week 13, read-out: Estimated AUC0-24 at NOAEL): 134 ng·h/mL | Cmax (both sexes, Beagle, dogs, males and females combined, 50 mg/mL/occasion 12 times a day, Week 13, read-out: Cmax at NOAEL): 28.7 ng/mL | Tmax (female, beagle, 30 mg/mL/occasion, female dogs, 30 mg/mL, 6 daily doses, Day 1): 30 min | AUC(0-t) (female, beagle, 30 mg/mL/occasion, female dogs, 30 mg/mL, 6 daily doses, Day 1, read-out: AUC0-1): 5.27 ng·h/mL | AUC(0-t) (female, beagle, 30 mg/mL/occasion, female dogs, 30 mg/mL, 6 daily doses, Day 1, read-out: AUC0-24): 31.6 ng·h/mL | Cmax (female, beagle, 30 mg/mL/occasion, female dogs, 30 mg/mL, 6 daily doses, Day 1, read-out: Cmax): 12.2 ng/mL | Tmax (female, beagle, 30 mg/mL/occasion, female dogs, 30 mg/mL, 6 daily doses, Week 4): 22.5 min | AUC(0-t) (female, beagle, 30 mg/mL/occasion, female dogs, 30 mg/mL, 6 daily doses, Week 4, read-out: AUC0-1): 4.28 ng·h/mL | AUC(0-t) (female, beagle, 30 mg/mL/occasion, female dogs, 30 mg/mL, 6 daily doses, Week 4, read-out: AUC0-24): 25.7 ng·h/mL | Cmax (female, beagle, 30 mg/mL/occasion, female dogs, 30 mg/mL, 6 daily doses, Week 4, read-out: Cmax): 9.34 ng/mL | Tmax (female, beagle, 30 mg/mL/occasion, female dogs, 30 mg/mL, 6 daily doses, Week 13): 15 min | AUC(0-t) (female, beagle, 30 mg/mL/occasion, female dogs, 30 mg/mL, 6 daily doses, Week 13, read-out: AUC0-1): 6.05 ng·h/mL | AUC(0-t) (female, beagle, 30 mg/mL/occasion, female dogs, 30 mg/mL, 6 daily doses, Week 13, read-out: AUC0-24): 36.3 ng·h/mL | Cmax (female, beagle, 30 mg/mL/occasion, female dogs, 30 mg/mL, 6 daily doses, Week 13, read-out: Cmax): 17.5 ng/mL | Tmax (female, beagle, 50 mg/mL/occasion, female dogs, 50 mg/mL, 6 daily doses, Day 1): 15 min | AUC(0-t) (female, beagle, 50 mg/mL/occasion, female dogs, 50 mg/mL, 6 daily doses, Day 1, read-out: AUC0-1): 8.79 ng·h/mL | AUC(0-t) (female, beagle, 50 mg/mL/occasion, female dogs, 50 mg/mL, 6 daily doses, Day 1, read-out: AUC0-24): 52.7 ng·h/mL | Cmax (female, beagle, 50 mg/mL/occasion, female dogs, 50 mg/mL, 6 daily doses, Day 1, read-out: Cmax): 17 ng/mL | Tmax (female, beagle, 50 mg/mL/occasion, female dogs, 50 mg/mL, 6 daily doses, Week 4): 15 min | AUC(0-t) (female, beagle, 50 mg/mL/occasion, female dogs, 50 mg/mL, 6 daily doses, Week 4, read-out: AUC0-1): 5.26 ng·h/mL | AUC(0-t) (female, beagle, 50 mg/mL/occasion, female dogs, 50 mg/mL, 6 daily doses, Week 4, read-out: AUC0-24): 31.6 ng·h/mL | Cmax (female, beagle, 50 mg/mL/occasion, female dogs, 50 mg/mL, 6 daily doses, Week 4, read-out: Cmax): 11.4 ng/mL | Tmax (female, beagle, 50 mg/mL/occasion, female dogs, 50 mg/mL, 6 daily doses, Week 13): 10 min | AUC(0-t) (female, beagle, 50 mg/mL/occasion, female dogs, 50 mg/mL, 6 daily doses, Week 13, read-out: AUC0-1): 6.64 ng·h/mL | AUC(0-t) (female, beagle, 50 mg/mL/occasion, female dogs, 50 mg/mL, 6 daily doses, Week 13, read-out: AUC0-24): 39.8 ng·h/mL | Cmax (female, beagle, 50 mg/mL/occasion, female dogs, 50 mg/mL, 6 daily doses, Week 13, read-out: Cmax): 17.9 ng/mL | Tmax (female, beagle, 50 mg/mL/occasion, female dogs, 50 mg/mL, 12 daily doses, Day 1): 30 min | AUC(0-t) (female, beagle, 50 mg/mL/occasion, female dogs, 50 mg/mL, 12 daily doses, Day 1, read-out: AUC0-1): 12.8 ng·h/mL | AUC(0-t) (female, beagle, 50 mg/mL/occasion, female dogs, 50 mg/mL, 12 daily doses, Day 1, read-out: AUC0-24): 153 ng·h/mL | Cmax (female, beagle, 50 mg/mL/occasion, female dogs, 50 mg/mL, 12 daily doses, Day 1, read-out: Cmax): 21.8 ng/mL | Tmax (female, beagle, 50 mg/mL/occasion, female dogs, 50 mg/mL, 12 daily doses, Week 4): 10 min | AUC(0-t) (female, beagle, 50 mg/mL/occasion, female dogs, 50 mg/mL, 12 daily doses, Week 4, read-out: AUC0-1): 6.77 ng·h/mL | AUC(0-t) (female, beagle, 50 mg/mL/occasion, female dogs, 50 mg/mL, 12 daily doses, Week 4, read-out: AUC0-24): 81.2 ng·h/mL | Cmax (female, beagle, 50 mg/mL/occasion, female dogs, 50 mg/mL, 12 daily doses, Week 4, read-out: Cmax): 14.5 ng/mL | Tmax (female, beagle, 50 mg/mL/occasion, female dogs, 50 mg/mL, 12 daily doses, Week 13): 15 min | AUC(0-t) (female, beagle, 50 mg/mL/occasion, female dogs, 50 mg/mL, 12 daily doses, Week 13, read-out: AUC0-1): 12.1 ng·h/mL | AUC(0-t) (female, beagle, 50 mg/mL/occasion, female dogs, 50 mg/mL, 12 daily doses, Week 13, read-out: AUC0-24): 146 ng·h/mL | Cmax (female, beagle, 50 mg/mL/occasion, female dogs, 50 mg/mL, 12 daily doses, Week 13, read-out: Cmax): 30.5 ng/mL | AUC(0-t) (male, beagle, 30 mg/mL/occasion, male dogs, 30 mg/mL, 6 daily doses, Day 1, read-out: AUC0-1): 3.82 ng·h/mL | AUC(0-t) (male, beagle, 30 mg/mL/occasion, male dogs, 30 mg/mL, 6 daily doses, Day 1, read-out: AUC0-24): 22.9 ng·h/mL | Cmax (male, beagle, 30 mg/mL/occasion, male dogs, 30 mg/mL, 6 daily doses, Day 1, read-out: Cmax): 7.41 ng/mL | Tmax (male, beagle, 30 mg/mL/occasion, male dogs, 30 mg/mL, 6 daily doses, Week 4): 15 min | AUC(0-t) (male, beagle, 30 mg/mL/occasion, male dogs, 30 mg/mL, 6 daily doses, Week 4, read-out: AUC0-1): 2.27 ng·h/mL | AUC(0-t) (male, beagle, 30 mg/mL/occasion, male dogs, 30 mg/mL, 6 daily doses, Week 4, read-out: AUC0-24): 13.6 ng·h/mL | Cmax (male, beagle, 30 mg/mL/occasion, male dogs, 30 mg/mL, 6 daily doses, Week 4, read-out: Cmax): 5.3 ng/mL | Tmax (male, beagle, 30 mg/mL/occasion, male dogs, 30 mg/mL, 6 daily doses, Week 13): 30 min | AUC(0-t) (male, beagle, 30 mg/mL/occasion, male dogs, 30 mg/mL, 6 daily doses, Week 13, read-out: AUC0-1): 3.81 ng·h/mL | AUC(0-t) (male, beagle, 30 mg/mL/occasion, male dogs, 30 mg/mL, 6 daily doses, Week 13, read-out: AUC0-24): 22.9 ng·h/mL | Cmax (male, beagle, 30 mg/mL/occasion, male dogs, 30 mg/mL, 6 daily doses, Week 13, read-out: Cmax): 7.03 ng/mL | Tmax (male, beagle, 50 mg/mL/occasion, male dogs, 50 mg/mL, 6 daily doses, Day 1): 4.98 min | AUC(0-t) (male, beagle, 50 mg/mL/occasion, male dogs, 50 mg/mL, 6 daily doses, Day 1, read-out: AUC0-1): 18.4 ng·h/mL | AUC(0-t) (male, beagle, 50 mg/mL/occasion, male dogs, 50 mg/mL, 6 daily doses, Day 1, read-out: AUC0-24): 110 ng·h/mL | Cmax (male, beagle, 50 mg/mL/occasion, male dogs, 50 mg/mL, 6 daily doses, Day 1, read-out: Cmax): 52.8 ng/mL | Tmax (male, beagle, 50 mg/mL/occasion, male dogs, 50 mg/mL, 6 daily doses, Week 4): 10 min | AUC(0-t) (male, beagle, 50 mg/mL/occasion, male dogs, 50 mg/mL, 6 daily doses, Week 4, read-out: AUC0-1): 8.74 ng·h/mL | AUC(0-t) (male, beagle, 50 mg/mL/occasion, male dogs, 50 mg/mL, 6 daily doses, Week 4, read-out: AUC0-24): 52.4 ng·h/mL | Cmax (male, beagle, 50 mg/mL/occasion, male dogs, 50 mg/mL, 6 daily doses, Week 4, read-out: Cmax): 24.2 ng/mL | Tmax (male, beagle, 50 mg/mL/occasion, male dogs, 50 mg/mL, 6 daily doses, Week 13): 15 min | AUC(0-t) (male, beagle, 50 mg/mL/occasion, male dogs, 50 mg/mL, 6 daily doses, Week 13, read-out: AUC0-1): 6.36 ng·h/mL | AUC(0-t) (male, beagle, 50 mg/mL/occasion, male dogs, 50 mg/mL, 6 daily doses, Week 13, read-out: AUC0-24): 38.2 ng·h/mL | Cmax (male, beagle, 50 mg/mL/occasion, male dogs, 50 mg/mL, 6 daily doses, Week 13, read-out: Cmax): 13.2 ng/mL | Tmax (male, beagle, 50 mg/mL/occasion, male dogs, 50 mg/mL, 12 daily doses, Day 1): 22.5 min | AUC(0-t) (male, beagle, 50 mg/mL/occasion, male dogs, 50 mg/mL, 12 daily doses, Day 1, read-out: AUC0-1): 36.6 ng·h/mL | AUC(0-t) (male, beagle, 50 mg/mL/occasion, male dogs, 50 mg/mL, 12 daily doses, Day 1, read-out: AUC0-24): 439 ng·h/mL | Cmax (male, beagle, 50 mg/mL/occasion, male dogs, 50 mg/mL, 12 daily doses, Day 1, read-out: Cmax): 69.7 ng/mL | Tmax (male, beagle, 50 mg/mL/occasion, male dogs, 50 mg/mL, 12 daily doses, Week 4): 15 min | AUC(0-t) (male, beagle, 50 mg/mL/occasion, male dogs, 50 mg/mL, 12 daily doses, Week 4, read-out: AUC0-1): 11.8 ng·h/mL | AUC(0-t) (male, beagle, 50 mg/mL/occasion, male dogs, 50 mg/mL, 12 daily doses, Week 4, read-out: AUC0-24): 142 ng·h/mL | Cmax (male, beagle, 50 mg/mL/occasion, male dogs, 50 mg/mL, 12 daily doses, Week 4, read-out: Cmax): 23.8 ng/mL | Tmax (male, beagle, 50 mg/mL/occasion, male dogs, 50 mg/mL, 12 daily doses, Week 13): 15 min | AUC(0-t) (male, beagle, 50 mg/mL/occasion, male dogs, 50 mg/mL, 12 daily doses, Week 13, read-out: AUC0-1): 10.2 ng·h/mL | AUC(0-t) (male, beagle, 50 mg/mL/occasion, male dogs, 50 mg/mL, 12 daily doses, Week 13, read-out: AUC0-24): 122 ng·h/mL | Cmax (male, beagle, 50 mg/mL/occasion, male dogs, 50 mg/mL, 12 daily doses, Week 13, read-out: Cmax): 26.8 ng/mL
